Laboratory results: patent US7943628B2, “Pyrimidine derivatives” (Pfizer Limited, priority 2005, dated 2011)

Molecular target: T1, histamine H4 receptor (Homo sapiens, UniProt Q9H3N8)
T1 construct: expressed in transfected cells; host or cells: CHO cells
Experiment: H4 binding, method 1 ([3H]-histamine filtration binding on CHO cell membranes)
Settings: for Ki: H4 binding, method 1, Ki calculated from IC50 (Cheng-Prussoff)
Method: Cell pellets from CHO cells expressing the histamine H4 receptor were homogenised in ice-cold 50 mM Tris-HCl/0.5 mM CaCl2 buffer containing a protease inhibitor cocktail (Roche®, United Kingdom) using a ground glass homogeniser. Homogenates were centrifuged at 48000 g for 30 min at 4° C. The membrane pellet was resuspended in fresh buffer and the centrifugation step was repeated as described above. The membrane pellet was resuspended in 50 mM Tris-HCl in the same volume as the original cell pellet. Aliquots of membrane preparations were stored at −80° C. and were used for [^3H]-Histamine binding experiments.
Cell membranes (20-35 μg/well) were incubated for 90 minutes shaking at room temperature with 3 nM [2,5-^3H]Histamine dihydrochloride (30-60 Ci/mmol) in 50 mM Tris-HCl (pH 7.4), with or without competing H4 ligands. The reaction was terminated by rapid filtration through 0.5% polyethylenimine-soaked Unifilter GF/B plates (Packard) followed by three washes with 1 ml ice-cold 50 mM Tris-HCl. Filters were dried for 45 min at 45° C. and bound radiolabel was determined using scintillation counting techniques. Non-specific binding was defined with 10 μM JNJ7777120.

T1 sequence (Q9H3N8 whole entry): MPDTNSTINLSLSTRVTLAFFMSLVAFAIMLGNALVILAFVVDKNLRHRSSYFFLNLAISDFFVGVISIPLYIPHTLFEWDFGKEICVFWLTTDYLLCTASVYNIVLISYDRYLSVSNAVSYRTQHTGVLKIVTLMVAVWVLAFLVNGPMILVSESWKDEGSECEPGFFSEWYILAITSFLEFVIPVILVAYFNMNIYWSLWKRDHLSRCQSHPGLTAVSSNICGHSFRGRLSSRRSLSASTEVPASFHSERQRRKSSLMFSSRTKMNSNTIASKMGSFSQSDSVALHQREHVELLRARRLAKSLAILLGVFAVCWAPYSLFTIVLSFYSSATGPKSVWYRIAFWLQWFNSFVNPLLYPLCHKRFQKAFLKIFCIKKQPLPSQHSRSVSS

| SMILES | Ki [nM] | also measured |
| --- | --- | --- |
| CCNc1cc(N2CC(N3CCCC3)C2)nc(N)n1 [Example 197, N^4-Ethyl-6-(3-pyrrolidin-1-ylazetidin-1-yl)pyrimidine-2,4-diamine] | 33.2 | – |
| CC(C)Nc1cc(N2CCCN(C)CC2)nc(N)n1 [Example 198, N^4-isoPropyl-6-(4-methyl-1,4-diazepan-1-yl)pyrimidine-2,4-diamine] | 33.6 | – |
| CN[C@@H]1CCN(c2cc(NC3CCC3)nc(N)n2)C1 [Example 199, N^4-Cyclobutyl-6-[(3R)-3-(methylamino)pyrrolidin-1-yl]pyrimidine-2,4-diamine] | 33.9 | – |
| CC(C)(C)CNc1cc(N2CCC(N)CC2)nc(N)n1 [Example 201, 6-(4-Aminopiperidin-1-yl)-N^4-(2,2-dimethylpropyl)pyrimidine-2,4-diamine] | 35 | – |
| CN[C@@H]1CCN(c2cc(NC(C)C)ncn2)C1 [Example 202, N-Isopropyl-6-[(3R)-3-(methylamino)pyrrolidin-1-yl]pyrimidin-4-amine] | 36.5 | – |
| CN[C@@H]1CCN(c2cc(NC3CC3)ncn2)C1 [Example 203, N-Cyclopropyl-6-[(3R)-3-(methylamino)pyrrolidin-1-yl]pyrimidin-4-amine] | 37.9 | – |
| CN[C@H]1CCN(c2cc(NCC3CC3)nc(N)n2)C1 [Example 204, N^4-(Cyclopropylmethyl)-6-[(3S)-3-(methylamino)pyrrolidin-1-yl]pyrimidine-2,4-diamine] | 39 | – |
| CCNc1cc(N2CC[C@H](NC)C2)nc(N)n1 [Example 205, N^4-Ethyl-6-[(3S)-3-(methylamino)pyrrolidin-1-yl]pyrimidine-2,4-diamine] | 39.3 | – |
| CCCNc1cc(N2CC(NC)C2)ncn1 [Example 206, 6-[3-(Methylamino)azetidin-1-yl]-N-propylpyrimidin-4-amine] | 39.9 | – |
| CN[C@H]1CCN(c2cc(NC(C)(C)C)nc(N)n2)C1 [Example 207, N^4-(tert-Butyl)-6-[(3S)-3-(methylamino)pyrrolidin-1-yl]pyrimidine-2,4-diamine] | 43.3 | – |
| CNc1cc(N2CCNCC2)nc(N)n1 [Example 208, N^4-Methyl-6-piperazin-1-ylpyrimidine-2,4-diamine] | 45.1 | – |
| CNCC1CN(c2cc(NCC(C)(C)C)nc(N)n2)C1 [Example 209, N^4-(2,2-Dimethylpropyl)-6-{3-[(methylamino)methyl]azetidin-1-yl}pyrimidine-2,4-diamine] | 46.4 | – |
| Nc1nc(NCC2CC2)cc(N2C[C@@H]3CCCN[C@@H]3C2)n1 [Example 210, N^4-(Cyclopropylmethyl)-6-[(4aS,7aS)-octahydro-6H-pyrrolo[3,4-b]pyridin-6-yl]pyrimidine-2,4-diamine] | 48.9 | – |
| CN[C@H]1CCN(c2cc(NCCC(C)(C)C)nc(N)n2)C1 [Example 211, N^4-(3,3-Dimethylbutyl)-6-[(3S)-3-(methylamino)pyrrolidin-1-yl]pyrimidine-2,4-diamine] | 49.3 | – |
| NCCNc1cc(NCC2CC2)nc(N)n1 [Example 212, N^4-(2-Aminoethyl)-N^6-(cyclopropylmethyl)pyrimidine-2,4,6-triamine] | 50 | – |
| C[C@H]1CN(c2cc(NCc3ccccc3F)nc(N)n2)CCN1 [Example 213, N^4-(2-Fluorobenzyl)-6-[(3S)-3-methylpiperazin-1-yl]pyrimidine-2,4-diamine] | 52.9 | – |
| CCNc1cc(N2CCNCC2)nc(N)n1 [Example 214, N^4-Ethyl-6-piperazin-1-ylpyrimidine-2,4-diamine] | 54.4 | – |
| Nc1nc(NCC2CC2)cc(N2CC[C@@H](N)C2)n1 [Example 215, 6-[(3R)-3-Aminopyrrolidin-1-yl]-N^4-(cyclopropylmethyl)pyrimidine-2,4-diamine] | 57.3 | – |
| CC(C)CNc1cc(N2CC[C@@H](N)C2)nc(N)n1 [Example 216, 6-[(3R)-3-Aminopyrrolidin-1-yl]-N^4-isobutylpyrimidine-2,4-diamine] | 70.6 | – |
| CC(C)CNc1cc(N2C[C@H]3CNC[C@H]3C2)nc(N)n1 [Example 217, 6-[(3aR*,6aS*)-Hexahydropyrrolo[3,4-c]pyrrol-2(1H)-yl]-N^4-isobutylpyrimidine-2,4-diamine] | 80.6 | – |
| Nc1nc(NCC2CCCC2)cc(N2CC[C@@H](N)C2)n1 [Example 218, 6-[(3R)-3-Aminopyrrolidin-1-yl]-N^4-(cyclopentylmethyl)pyrimidine-2,4-diamine] | 80.7 | – |
| CCCNc1cc(N2CC[C@@H](N)C2)nc(N)n1 [Example 219, 6-[(3R)-3-Aminopyrrolidin-1-yl]-N^4-propylpyrimidine-2,4-diamine] | 82.3 | – |

| SMILES | Ki [nM] | also measured |
| --- | --- | --- |
| NCCNc1cc(NCC2CC2)ncn1 [Example 220, N-(2-Aminoethyl)-N′-(cyclopropylmethyl)pyrimidine-4,6-diamine] | 88 | – |
| CNc1cc(N2CC[C@@H](NC)C2)nc(N)n1 [Example 221, N^4-Methyl-6-[(3R)-3-(methylamino)pyrrolidin-1-yl]pyrimidine-2,4-diamine] | 90.3 | – |
| CC(C)(C)CNc1cc(NC2C3CNCC32)nc(N)n1 (stereo not drawn) [Example 222, N^4-[(1R*,5S*,6s*)-3-Azabicyclo[3.1.0]hex-6-yl]-N^6-(2,2-dimethylpropyl)pyrimidine-2,4,6-triamine] | 95.2 | – |
| CN1CCN(c2cc(NC(C)(C)C)nc(N)n2)CC1 [Example 223, N^4-(tert-Butyl)-6-(4-methylpiperazin-1-yl)pyrimidine-2,4-diamine] | – | inhibition at 10 µM (1.5 h): 13% |
| CN1CCCN(c2cc(NC3CC3)ncn2)CC1 [Example 224, N-Cyclopropyl-6-(4-methyl-1,4-diazepan-1-yl)pyrimidin-4-amine] | 101 | – |
| CC(C)(C)CCNc1cc(N2CC[C@@H](N)C2)nc(N)n1 [Example 225, 6-[(3R)-3-Aminopyrrolidin-1-yl]-N^4-(3,3-dimethylbutyl)pyrimidine-2,4-diamine] | 102 | – |
| CC(C)NC1CN(c2cc(NCC(C)(C)C)ncn2)C1 [Example 226, N-(2,2-Dimethylpropyl)-6-[3-(isopropylamino)azetidin-1-yl]pyrimidin-4-amine] | 113 | – |
| CNCC1CN(c2cc(NCC3CC3)nc(N)n2)C1 [Example 227, N^4-(Cyclopropylmethyl)-6-{3-[(methylamino)methyl]azetidin-1-yl}pyrimidine-2,4-diamine] | 115 | – |
| C[C@H]1CN(c2cc(NCc3cccc(F)c3)nc(N)n2)CCN1 [Example 228, N^4-(3-Fluorobenzyl)-6-[(3S)-3-methylpiperazin-1-yl]pyrimidine-2,4-diamine] | 117 | – |
| CC(C)CNc1cc(N2CCC(N)CC2)nc(N)n1 [Example 229, 6-(4-Aminopiperidin-1-yl)-N^4-isobutylpyrimidine-2,4-diamine] | 127 | – |
| Nc1nc(NC2CCC2)cc(N2C[C@H]3CCCN[C@H]3C2)n1 [Example 230, N^4-Cyclobutyl-6-[(4aR,7aR)-octahydro-6H-pyrrolo[3,4-b]pyridin-6-yl]pyrimidine-2,4-diamine] | 127 | – |
| CC(C)Nc1cc(N2CCC3NCCC3C2)nc(N)n1 (centres unmarked) [Example 231, N^4-Isopropyl-6-(octahydro-5H-pyrrolo[3,2-c]pyridin-5-yl)pyrimidine-2,4-diamine] | 131 | – |
| CCCNc1cc(N2CC(N)C2)nc(N)n1 [Example 232, 6-(3-Aminoazetidin-1-yl)-N^4-propylpyrimidine-2,4-diamine] | 13.9 | – |
| CNC1CN(c2cc(NCc3ccc(F)c(F)c3)nc(N)n2)C1 [Example 233, N^4-(3,4-Difluorobenzyl)-6-[3-(methylamino)azetidin-1-yl]pyrimidine-2,4-diamine] | 30.4 | – |
| CC(C)Nc1cc(N2CCC(N)CC2)nc(N)n1 [Example 234, 6-(4-Aminopiperidin-1-yl)-N^4-isopropylpyrimidine-2,4-diamine] | 177 | – |
| CN[C@@H]1CCN(c2cc(NCCC(F)(F)F)nc(N)n2)C1 [Example 235, 6-[(3R)-3-(Methylamino)pyrrolidin-1-yl]-N^4-(3,3,3-trifluoropropyl)pyrimidine-2,4-diamine] | 198 | – |
| CNC1CN(c2cc(N3CC(F)(F)C3)nc(N)n2)C1 [Example 236, 4-(3,3-Difluoroazetidin-1-yl)-6-[3-(methylamino)azetidin-1-yl]pyrimidin-2-amine] | 205 | – |
| C[C@@H]1CN(c2cc(NCc3ccccc3F)nc(N)n2)CCN1 [Example 237, N^4-(2-Fluorobenzyl)-6-[(3R)-3-methylpiperazin-1-yl]pyrimidine-2,4-diamine] | 211 | – |
| CC(C)Nc1cc(N2C[C@H]3CNC[C@H]3C2)nc(N)n1 [Example 238, 6-[(3aR*,6aS*)-Hexahydropyrrolo[3,4-c]pyrrol-2(1H )-yl]-N^4-isopropylpyrimidine-2,4-diamine] | 222 | – |
| CN1CCCN(c2cc(NCC(C)(C)C)ncn2)CC1 [Example 239, N-(2,2-Dimethylpropyl)-6-(4-methyl-1,4-diazepan-1-yl)pyrimidin-4-amine] | 235 | – |
| C[C@H]1CN(c2cc(NCc3ccc(F)cc3)nc(N)n2)CCN1 [Example 240, N^4-(4-Fluorobenzyl)-6-[(3S)-3-methylpiperazin-1-yl]pyrimidine-2,4-diamine] | 238 | – |
| CC(C)Nc1cc(N2C[C@H]3CN(C)C[C@H]3C2)nc(N)n1 [Example 241, N^4-Isopropyl-6-[(3aR*,6aS*)-5-methylhexahydropyrrolo[3,4-c]pyrrol-2(1H)-yl]pyrimidine-2,4-diamine] | – | Method 1, % at 1 μM (at 1 μM): 45% at 1 μM |
